Values quoted from earlier work, collected in patent publication US8633332B2, “Efficient isolation of cimiracemate A, and methods of use” (Purapharm Company Limited, priority 2009, dated 2014).
Entries after “also recorded” stand apart in the source; their conditions may differ.

Key:
TNF-α = conditions: human macrophages
MAP kinase = conditions: human macrophages
[1] = system: specific transcription factors; conditions: human macrophages, LPS-induced

inhibition of LPS-induced MAP kinase activities (specific kinase phosphorylation) (MAP kinase): suppresses; also recorded: inhibit
SMILES: COc1ccc(/C=C/C(=O)OCC(=O)Cc2ccc(O)c(O)c2)cc1O [Cimiracemate A]
suppression of LPS-induced TNF-α production (TNF-α): suppresses; also recorded: suppress
inhibition of activation of specific transcription factors [1]: suppresses; also recorded: inhibit
